Source: ChEMBL document CHEMBL2413076, “Synthesis and biological evaluation of ursolic acid-triazolyl derivatives as potential anti-cancer agents” (Eur J Med Chem, 2013)

Key:
[1] = Growth inhibition of human FR2 cells after 48 hrs by sulforhodamine-B assay; assay type: cell-based; details: FR2, 48 h
[2] = test system: THP-1; assay: Growth inhibition of human THP1 cells after 48 hrs by sulforhodamine-B assay; assay type: functional, cell-based; details: THP-1, 48 h
[3] = test system: MCF7; assay: Growth inhibition of human MCF7 cells after 48 hrs by sulforhodamine-B assay; assay type: functional, cell-based; details: MCF7, 48 h
[4] = test system: HCT-116; assay: Growth inhibition of human HCT116 cells after 48 hrs by sulforhodamine-B assay; assay type: functional, cell-based; details: HCT-116, 48 h
[5] = test system: A549; assay: Growth inhibition of human A549 cells after 48 hrs by sulforhodamine-B assay; assay type: functional, cell-based; details: A549, 48 h
[6] = Growth inhibition of human FR2 cells assessed as dead cells at 10 uM after 48 hrs by sulforhodamine-B assay relative to control; assay type: cell-based; details: read-out: GI
[7] = test system: THP-1; assay: Growth inhibition of human THP1 cells assessed as dead cells at 10 uM after 48 hrs by sulforhodamine-B assay relative to control; assay type: functional; details: THP-1, 48 h, read-out: GI
[8] = test system: HCT-116; assay: Growth inhibition of human HCT116 cells assessed as dead cells at 10 uM after 48 hrs by sulforhodamine-B assay relative to control; assay type: functional; details: HCT-116, 48 h, read-out: GI
[9] = test system: MCF7; assay: Growth inhibition of human MCF7 cells assessed as dead cells at 10 uM after 48 hrs by sulforhodamine-B assay relative to control; assay type: functional; details: MCF7, 48 h, read-out: GI
[10] = test system: A549; assay: Growth inhibition of human A549 cells assessed as dead cells at 10 uM after 48 hrs by sulforhodamine-B assay relative to control; assay type: functional; details: A549, 48 h, read-out: GI
[11] = Growth inhibition of human FR2 cells assessed as dead cells at 50 uM after 48 hrs by sulforhodamine-B assay relative to control; assay type: cell-based; details: read-out: GI
[12] = test system: A549; assay: Growth inhibition of human A549 cells assessed as dead cells at 50 uM after 48 hrs by sulforhodamine-B assay relative to control; assay type: functional; details: A549, 48 h, read-out: GI
[13] = test system: MCF7; assay: Growth inhibition of human MCF7 cells assessed as dead cells at 50 uM after 48 hrs by sulforhodamine-B assay relative to control; assay type: functional; details: MCF7, 48 h, read-out: GI
[14] = test system: HCT-116; assay: Growth inhibition of human HCT116 cells assessed as dead cells at 50 uM after 48 hrs by sulforhodamine-B assay relative to control; assay type: functional; details: HCT-116, 48 h, read-out: GI
[15] = test system: THP-1; assay: Growth inhibition of human THP1 cells assessed as dead cells at 50 uM after 48 hrs by sulforhodamine-B assay relative to control; assay type: functional; details: THP-1, 48 h, read-out: GI

Structure (SMILES)	IC50 [1]	IC50 [2]	IC50 [3]	IC50 [4]	IC50 [5]	inhibition at 48 h, 10 µM [6]	inhibition of growth at 10 µM [7]	inhibition of growth at 10 µM [8]	inhibition of growth at 10 µM [9]	inhibition of growth at 10 µM [10]	inhibition at 48 h, 50 µM [11]	inhibition of growth at 50 µM [12]	inhibition of growth at 50 µM [13]	inhibition of growth at 50 µM [14]	inhibition of growth at 50 µM [15]
Cc1ccc(-n2cc(COC(=O)[C@]34CC[C@@H](C)[C@H](C)[C@H]3C3=CC[C@@H]5[C@@]6(C)CCC(=O)C(C)(C)[C@@H]6CC[C@@]5(C)[C@]3(C)CC4)nn2)cc1C	10 µM	0.9 µM	5.5 µM	< 0.1 µM	0.5 µM	68%	82%	91%	69%	74%	85%	93%	99%	99%	94%
C[C@H]1[C@H](C)CC[C@]2(C(=O)OCc3cn(-c4ccc(C(F)(F)F)cc4)nn3)CC[C@]3(C)C(=CC[C@@H]4[C@@]5(C)CCC(=O)C(C)(C)[C@@H]5CC[C@]43C)[C@H]12												30%	3%	16%	27%
C[C@H]1[C@H](C)CC[C@]2(C(=O)OCc3cn(-c4ccccc4)nn3)CC[C@]3(C)C(=CC[C@@H]4[C@@]5(C)CCC(=O)C(C)(C)[C@@H]5CC[C@]43C)[C@H]12	82 µM	11 µM	39 µM	14 µM	24 µM	12%	54%	44%	28%	43%	45%	64%	51%	78%	83%
C[C@H]1[C@H](C)CC[C@]2(C(=O)OCc3cn(-c4cccc5ccccc45)nn3)CC[C@]3(C)C(=CC[C@@H]4[C@@]5(C)CCC(=O)C(C)(C)[C@@H]5CC[C@]43C)[C@H]12							47%	2%	40%	27%		50%	80%	76%	75%
C[C@H]1[C@H](C)CC[C@]2(C(=O)OCc3cn(-c4ccc(Br)cc4)nn3)CC[C@]3(C)C(=CC[C@@H]4[C@@]5(C)CCC(=O)C(C)(C)[C@@H]5CC[C@]43C)[C@H]12	19 µM	1 µM	15 µM	1.7 µM	18 µM	58%	74%	80%	44%	45%	93%	63%	78%	92%	95%
C[C@H]1[C@H](C)CC[C@]2(C(=O)OCc3cn(-c4ccccc4Br)nn3)CC[C@]3(C)C(=CC[C@@H]4[C@@]5(C)CCC(=O)C(C)(C)[C@@H]5CC[C@]43C)[C@H]12	69 µM	< 0.1 µM	< 0.1 µM	15 µM	2.9 µM	2%	92%	41%	80%	85%	99%	99%	99%	99%	99%
C[C@H]1[C@H](C)CC[C@]2(C(=O)OCc3cn(-c4ccc(CC#N)cc4)nn3)CC[C@]3(C)C(=CC[C@@H]4[C@@]5(C)CCC(=O)C(C)(C)[C@@H]5CC[C@]43C)[C@H]12	46 µM	37 µM	79 µM	19 µM	> 100 µM	14%	32%	44%	17%	13%	46%	26%	34%	67%	55%
C[C@H]1[C@H](C)CC[C@]2(C(=O)OCc3cn(-c4ccc(Cl)cc4)nn3)CC[C@]3(C)C(=CC[C@@H]4[C@@]5(C)CCC(=O)C(C)(C)[C@@H]5CC[C@]43C)[C@H]12												26%	52%	49%	9%
C[C@H]1[C@H](C)CC[C@]2(C(=O)OCc3cn(-c4ccccc4F)nn3)CC[C@]3(C)C(=CC[C@@H]4[C@@]5(C)CCC(=O)C(C)(C)[C@@H]5CC[C@]43C)[C@H]12												18%	15%	12%	49%
C[C@H]1[C@H](C)CC[C@]2(C(=O)OCc3cn(-c4ccccc4I)nn3)CC[C@]3(C)C(=CC[C@@H]4[C@@]5(C)CCC(=O)C(C)(C)[C@@H]5CC[C@]43C)[C@H]12	35 µM	9.4 µM	13 µM	15 µM	19 µM	36%	56%	44%	54%	43%	56%	67%	76%	78%	79%
C[C@H]1[C@H](C)CC[C@]2(C(=O)OCc3cn(-c4ccccc4C(F)(F)F)nn3)CC[C@]3(C)C(=CC[C@@H]4[C@@]5(C)CCC(=O)C(C)(C)[C@@H]5CC[C@]43C)[C@H]12												46%	4%	23%	73%
C[C@H]1[C@H](C)CC[C@]2(C(=O)OCc3cn(-c4cccc(Br)c4)nn3)CC[C@]3(C)C(=CC[C@@H]4[C@@]5(C)CCC(=O)C(C)(C)[C@@H]5CC[C@]43C)[C@H]12												16%	3%	10%	32%
C[C@H]1[C@H](C)CC[C@]2(C(=O)OCc3cn(-c4ccc(F)cc4)nn3)CC[C@]3(C)C(=CC[C@@H]4[C@@]5(C)CCC(=O)C(C)(C)[C@@H]5CC[C@]43C)[C@H]12												3%	4%	3%	2%
C[C@H]1[C@H](C)CC[C@]2(C(=O)OCc3cn(-c4ccc(I)cc4)nn3)CC[C@]3(C)C(=CC[C@@H]4[C@@]5(C)CCC(=O)C(C)(C)[C@@H]5CC[C@]43C)[C@H]12												2%	82%	8%	1%
COc1ccccc1-n1cc(COC(=O)[C@]23CC[C@@H](C)[C@H](C)[C@H]2C2=CC[C@@H]4[C@@]5(C)CCC(=O)C(C)(C)[C@@H]5CC[C@@]4(C)[C@]2(C)CC3)nn1	> 50 µM	< 0.1 µM	< 0.1 µM	0.3 µM	< 0.1 µM	5%	82%	77%	87%	79%	28%	94%	91%	94%	93%
C[C@H]1[C@H](C)CC[C@]2(C(=O)OCc3cn(-c4ccccc4[N+](=O)[O-])nn3)CC[C@]3(C)C(=CC[C@@H]4[C@@]5(C)CCC(=O)C(C)(C)[C@@H]5CC[C@]43C)[C@H]12	> 50 µM	48 µM	> 50 µM	14 µM	> 50 µM	9%	24%	45%	4%	3%	12%	39%	42%	65%	54%
C[C@H]1[C@H](C)CC[C@]2(C(=O)OCc3cn(-c4ccccc4Cl)nn3)CC[C@]3(C)C(=CC[C@@H]4[C@@]5(C)CCC(=O)C(C)(C)[C@@H]5CC[C@]43C)[C@H]12	> 50 µM	< 0.1 µM	< 0.1 µM	9.1 µM	0.15 µM	9%	80%	54%	81%	77%	35%	91%	95%	93%	96%
